# Assay results published in US8691804B2 (Evotec AG, priority 2008, dated 2014).
# Target: T1, human H3 receptors (Homo sapiens, UniProt Q9Y5N1)
# T1 construct: host or cells: CHO-K1
# Assay: cAMP quantification assay for human H3 receptor testing
# Assay type: cell-based
# Conditions: CHO-K1 cells expressing human H3 receptors; inhibition of agonist-induced decrease of cAMP; 100 nM histamine, 10 μM forskolin; read-out: Potency range (IC50 values)
# Outline: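 CHO-K1 cells expressing human H3 (10,000/well) were preincubated 30 min at 37 °C with compound in PBS containing 1 mM IBMX and 0.03% BSA. They were then challenged 30 min with agonist solution (100 nM histamine plus 10 μM forskolin). cAMP was quantified by enzyme-complementation luminescence, with 8 concentrations in triplicate at 1% DMSO.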
# T1 sequence (Q9Y5N1 whole entry): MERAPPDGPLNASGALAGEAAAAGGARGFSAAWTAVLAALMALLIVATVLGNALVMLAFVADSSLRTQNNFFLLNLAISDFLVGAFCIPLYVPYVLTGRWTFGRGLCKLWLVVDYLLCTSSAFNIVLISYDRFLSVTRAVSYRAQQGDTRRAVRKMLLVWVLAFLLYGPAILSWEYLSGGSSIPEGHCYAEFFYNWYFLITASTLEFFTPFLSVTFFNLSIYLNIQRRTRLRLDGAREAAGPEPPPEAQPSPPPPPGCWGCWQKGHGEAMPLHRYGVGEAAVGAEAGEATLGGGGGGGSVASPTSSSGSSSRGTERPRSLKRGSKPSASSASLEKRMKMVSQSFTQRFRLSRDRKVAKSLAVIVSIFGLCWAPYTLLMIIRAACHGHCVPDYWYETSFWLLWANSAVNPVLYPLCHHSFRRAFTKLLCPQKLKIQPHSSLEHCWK
row,SMILES,IC50
1,"O=C1NCCc2cc(OCC3CN(C(=O)N4CCCN(C5CCC5)CC4)C3)ccc21 [Example 136, 6-({1-[(4-cyclobutyl-1,4-diazepan-1-yl)carbonyl]azetidin-3-yl}methoxy)-3,4-dihydroisoquinolin-1(2H)-one]",< 100 nM
2,"CN1CCc2cc(OCC3CN(C(=O)N4CCCN(C5CCC5)CC4)C3)ccc2C1=O [Example 137, 6-({1-[(4-cyclobutyl-1,4-diazepan-1-yl)carbonyl]azetidin-3-yl}methoxy)-2-methyl-3,4-dihydroisoquinolin-1(2H)-one]",< 100 nM
3,"O=C(NC1CN(C(=O)N2CCCN(C3CCC3)CC2)C1)C1CCCCC1 [Example 141, N-{1-[(4-cyclobutyl-1,4-diazepan-1-yl)carbonyl]azetidin-3-yl}cyclohexanecarboxamide]",< 100 nM
4,"COCC1CN(C(=O)N2CCCN(C3CCC3)CC2)C1 [Example 148, 1-cyclobutyl-4-{[3-(methoxymethyl)azetidin-1-yl]carbonyl}-1,4-diazepane]",< 100 nM
5,"Cn1cc(-c2ccc(OC3CN(C(=O)N4CCCN(C5CCC5)CC4)C3)cc2)cn1 [Example 149, 1-cyclobutyl-4-({3-[4-(1-methyl-1H-pyrazol-4-yl)phenoxy]azetidin-1-yl}carbonyl)-1,4-diazepane]",< 100 nM
6,"Cc1nn(C)c(C)c1-c1ccc(OC2CN(C(=O)N3CCCN(C4CCC4)CC3)C2)cc1 [Example 150, 1-cyclobutyl-4-({3-[4-(1,3,5-trimethyl-1H-pyrazol-4-yl)phenoxy]azetidin-1-yl}carbonyl)-1,4-diazepane]",< 100 nM
7,"Cc1nccc(OC2CN(C(=O)N3CCCN(C4CCC4)CC3)C2)c1F [Example 151, 1-cyclobutyl-4-({3-[(3-fluoro-2-methylpyridin-4-yl)oxy]azetidin-1-yl}carbonyl)-1,4-diazepane]",< 100 nM
8,"O=C(N1CCCN(C2CCC2)CC1)N1CC(COc2ccc(C(F)(F)F)nc2)C1 [Example 153, 1-cyclobutyl-4-{[3-({[6-(trifluoromethyl)pyridin-3-yl]oxy}methyl)azetidin-1-yl]carbonyl}-1,4-diazepane]",< 100 nM
9,"CC(C)(CO)c1ccc(OC2CN(C(=O)N3CCCN(C4CCC4)CC3)C2)cn1 [Example 156, 2-[5-({1-[(4-cyclobutyl-1,4-diazepan-1-yl)carbonyl]azetidin-3-yl}oxy)pyridin-2-yl]-2-methylpropan-1-ol]",< 100 nM
10,"CCN1CCCN(C(=O)N2CC(Oc3ccc(C(C)(C)O)nc3)C2)CC1 [Example 157, 2-[5-({1-[(4-ethyl-1,4-diazepan-1-yl)carbonyl]azetidin-3-yl}oxy)pyridin-2-yl]propan-2-ol]",< 100 nM
11,"CC(C)N1CCCN(C(=O)N2CC(Oc3ccc(C(C)(C)O)nc3)C2)CC1 [Example 158, 2-{5-[(1-{[4-(1-methylethyl)-1,4-diazepan-1-yl]carbonyl}azetidin-3-yl)oxy]pyridin-2-yl}propan-2-ol]",< 100 nM
12,"CC(C)(O)c1ccc(OC2CN(C(=O)N3CCCN(C4CCCC4)CC3)C2)cn1 [Example 159, 2-[5-({1-[(4-cyclopentyl-1,4-diazepan-1-yl)carbonyl]azetidin-3-yl}oxy)pyridin-2-yl]propan-2-ol]",500 to 5000 nM
13,"O=C(N1CCCN(C2CCC2)CC1)N1CC(Oc2ncc(F)cn2)C1 [Example 160, 1-cyclobutyl-4-({3-[(5-fluoropyrimidin-2-yl)oxy]azetidin-1-yl}carbonyl)-1,4-diazepane]",< 100 nM
14,"CCc1cnc(OC2CN(C(=O)N3CCCN(C4CCC4)CC3)C2)nc1 [Example 162, 1-cyclobutyl-4-({3-[(5-ethylpyrimidin-2-yl)oxy]azetidin-1-yl}carbonyl)-1,4-diazepane]",500 to 5000 nM
15,"CC(C)(O)c1ccc(O[C@H]2C[C@@H](C(=O)N3CCCN(C4CCC4)CC3)C2)cn1 [Example 165, 2-[5-({cis-3-[(4-cyclobutyl-1,4-diazepan-1-yl)carbonyl]cyclobutyl}oxy)pyridin-2-yl]propan-2-ol]",< 100 nM

# Other lines, results leading:
row,IC50,SMILES
1,< 100 nM,"CNC(=O)c1ccc(OCC2CN(C(=O)N3CCCN(C4CCC4)CC3)C2)cn1 [Example 138, 5-({1-[(4-cyclobutyl-1,4-diazepan-1-yl)carbonyl]azetidin-3-yl}methoxy)-N-methylpyridine-2-carboxamide]"
2,< 100 nM,"Cc1ccc(C(=O)NC2CN(C(=O)N3CCCN(C4CCC4)CC3)C2)cn1 [Example 139, N-{1-[(4-cyclobutyl-1,4-diazepan-1-yl)carbonyl]azetidin-3-yl}-6-methylpyridine-3-carboxamide]"
3,< 100 nM,"O=C(NC1CN(C(=O)N2CCCN(C3CCC3)CC2)C1)c1ccc(Cl)cc1 [Example 140, 4-chloro-N-{1-[(4-cyclobutyl-1,4-diazepan-1-yl)carbonyl]azetidin-3-yl}benzamide]"
4,< 100 nM,"CN(C(=O)c1ccc(Cl)cc1)C1CN(C(=O)N2CCCN(C3CCC3)CC2)C1 [Example 142, 4-chloro-N-{1-[(4-cyclobutyl-1,4-diazepan-1-yl)carbonyl]azetidin-3-yl}-N-methylbenzamide]"
5,< 100 nM,"Cc1ccc(C(=O)N(C)C2CN(C(=O)N3CCCN(C4CCC4)CC3)C2)cn1 [Example 143, N-{1-[(4-cyclobutyl-1,4-diazepan-1-yl)carbonyl]azetidin-3-yl}-N,6-dimethylpyridine-3-carboxamide]"
6,< 100 nM,"CN(C(=O)C1CCCCC1)C1CN(C(=O)N2CCCN(C3CCC3)CC2)C1 [Example 144, N-{1-[(4-cyclobutyl-1,4-diazepan-1-yl)carbonyl]azetidin-3-yl}-N-methylcyclohexanecarboxamide]"
7,< 100 nM,"Cc1ccc(N(C)C(=O)C2CN(C(=O)N3CCCN(C4CCC4)CC3)C2)cn1 [Example 145, 1-[(4-cyclobutyl-1,4-diazepan-1-yl)carbonyl]-N-methyl-N-(6-methylpyridin-3-yl)azetidine-3-carboxamide]"
8,< 100 nM,"CN(C(=O)C1CN(C(=O)N2CCCN(C3CCC3)CC2)C1)c1ccc(Cl)cc1 [Example 146, N-(4-chlorophenyl)-1-[(4-cyclobutyl-1,4-diazepan-1-yl)carbonyl]-N-methylazetidine-3-carboxamide]"
9,< 100 nM,"CNC(=O)c1cc(OC2CN(C(=O)N3CCCN(C4CCC4)CC3)C2)ccn1 [Example 147, 4-({1-[(4-cyclobutyl-1,4-diazepan-1-yl)carbonyl]azetidin-3-yl}oxy)-N-methylpyridine-2-carboxamide]"
10,< 100 nM,"O=C(N1CCCN(C2CCC2)CC1)N1CC(Oc2ccc3ccccc3c2)C1 [Example 152, 1-cyclobutyl-4-{[3-(naphthalen-2-yloxy)azetidin-1-yl]carbonyl}-1,4-diazepane]"
11,< 100 nM,"O=C(N1CCCN(C2CCC2)CC1)N1CC(Oc2ccc3[nH]ccc3c2)C1 [Example 154, 5-({1-[(4-cyclobutyl-1,4-diazepan-1-yl)carbonyl]azetidin-3-yl}oxy)-1H-indole]"
12,< 100 nM,"Cn1ccc2cc(OC3CN(C(=O)N4CCCN(C5CCC5)CC4)C3)ccc21 [Example 155, 5-({1-[(4-cyclobutyl-1,4-diazepan-1-yl)carbonyl]azetidin-3-yl}oxy)-1-methyl-1H-indole]"
13,< 100 nM,"COc1ccc(OC2CN(C(=O)N3CCCN(C4CCC4)CC3)C2)nc1 [Example 161, 1-cyclobutyl-4-({3-[(5-methoxypyridin-2-yl)oxy]azetidin-1-yl}carbonyl)-1,4-diazepane]"
14,< 100 nM,"CS(=O)(=O)c1ccc(OC2CN(C(=O)N3CCCN(C4CCC4)CC3)C2)cc1 [Example 163, 1-cyclobutyl-4-({3-[4-(methylsulfonyl)phenoxy]azetidin-1-yl}carbonyl)-1,4-diazepane]"
15,< 100 nM,"Cc1ccc(COC2CN(C(=O)N3CCCN(C4CCC4)CC3)C2)cn1 [Example 164, 1-cyclobutyl-4-({3-[(6-methylpyridin-3-yl)methoxy]azetidin-1-yl}carbonyl)-1,4-diazepane]"
